Results on 2 molecules are retold here after patent US20210363110A1, “4-METHYLDIHYDROPYRIMIDINONE COMPOUNDS AND PHARMACEUTICAL USE THEREOF” (Japan Tobacco Inc., priority 2018, published 2021).

Bounds are passed on as bounds.

Assay type in all cases: in vitro ADME
Data set [1] is described as follows: Metabolic stability in liver microsomes, monkey. The note with it: residual ratio of unreacted substance, 0.2 mg/mL microsomes, NADPH generating system. The protocol: (§1) A test solution was prepared by diluting 10 mM DMSO solution of a test substance with acetonitrile by 100 times.
(§2) Human and animal liver microsomes (SEKISUI XENOTECH; Human (H2610), Rat (R1000), Mouse (M1000), Monkey (P2000), Dog (D1000)) were adjusted with potassium phosphate buffer (pH 7.4) to 0.2 mg/mL in the reaction system. Then, 1% of the solution of a test substance prepared was added to the reaction system. Thereto was added an NADPH generating system (prepared according to the method of Non Patent Literature 28), and the metabolic reaction was initiated. At a designated time, 0.1% formic acid-acetonitrile/water (3:1) was added thereto, and the reaction was terminated.
(§3) The sample after termination of the reaction was separated by centrifugation (1400 g, 20 min.), and then the supernatant was measured by LC/MS (UPLC-SQD (waters)) to calculate a residual ratio of unreacted substances.

A short description of data set [2]: Metabolic stability in liver microsomes, human. The note with it: residual ratio of unreacted substance, 0.2 mg/mL microsomes, NADPH generating system. As to the method: as §1, §2, §3
The nature of data set [3]: Metabolic stability in hepatocytes, rat. The note with it: residual ratio of unreacted substance, 1×10^6 cells/mL. As to the method: A test solution was prepared by diluting 10 mM DMSO solution of a test substance with acetonitrile by 20 times.
Human and animal cryopreserved hepatocyte (BIOIVT; Human (IVT-X008000), Rat (IVT-M00005), Monkey (IVT-M00305), Dog (IVT-M00205)) were adjusted with William's Medium E (SIGMA; W1878) to 1×10^6 cells/mL of a cell suspension, which was then added to a 96-well plate. Then, 1% of the solution of a test substance prepared was added to the reaction system, and the metabolic reaction was initiated. At a designated time, 0.1% formic acid-acetonitrile was added thereto, and the reaction was terminated.
as §3

For another data set, the system named is CYP3A4. Kind of data set: Potential for induction of CYP3A4 (Nuclear Receptor Activation Kit, DPX2 cells, reporter activity). The note with it: 48 hours, % of positive control (rifampicin); for Potential for induction of CYP3A4, 3 μM: 3 μM compound; for Potential for induction of CYP3A4, 10 μM: 10 μM compound. The protocol:
Potential for induction of CYP3A4 was evaluated with Nuclear Receptor Activation Kits (PURACYP; DPX2-96-002) according to protocols attached.
The following experiment was performed with substances accompanying Nuclear Receptor Activation Kits (PURACYP; DPX2-96-002).
A measurement method is specifically shown as follows. DPX2 cells were seeded on a 96-well plate and incubated with a CO2 incubator for 24 hours. […] The media on 96-well plate were removed with an aspirator 24 hours after seeding, and thereto was added the compound-supplemented medium which was prepared. CellTiter-Fluor was added to the medium 48 hours after the addition of compound, and the mixture was incubated with a CO2 incubator for 1 hour. Then, a cell viability was measured by the fluorometric method. ONE-Glo was added to the mixture, and the mixture was incubated with a CO2 incubator for 5 minutes. Then, the reporter activity was measured by luminescent determination. The induction ratio was calculated by comparing the resulting reporter activity with a DMSO control sample. % of positive control was calculated from the following equation.

With `CC[C@H](C)C1=CN(C23CC(C(=O)O)(C2)C3)C(=O)N[C@@]1(C)c1ccc([C@@H]2C[C@H]2C(C)(C)C)c(Cl)c1` [Compound (2), 3-{(S)-5-((S)-sec-Butyl)-4-[4-((1R,2R)-2-tert-butyl-cyclopropyl)-3-chloro-phenyl]-4-methyl-2-oxo-3,4-dihydro-2H-pyrimidin-1-yl}bicyclo[1.1.1]pentane-1-carboxylic acid], the “Metabolic stability in liver microsomes at 60 min., Monkey” value in data set [1] is listed as 96%. In addition, the “Metabolic stability in liver microsomes at 60 min., Human” value in data set [2] is recorded as 96%. The “Metabolic stability in hepatocytes at 240 min., Rat” value in data set [3] was 94%. In addition, in the data set on CYP3A4, the “Potential for induction of CYP3A4, 3 μM” value is listed as <10% and the “Potential for induction of CYP3A4, 10 μM” value is given as <10%.
With `CC(C)C1=CN(C23CC(C(=O)O)(C2)C3)C(=O)N[C@@]1(C)c1ccc([C@@H]2C[C@H]2C(C)(C)C)c(Cl)c1` [Compound (1), 3-{(S)-4-[4-((1R,2R)-2-tert-Butyl-cyclopropyl)-3-chloro-phenyl]-5-isopropyl-4-methyl-2-oxo-3,4-dihydro-2H-pyrimidin-1-yl}bicyclo[1.1.1]pentane-1-carboxylic acid], in data set [1], the “Metabolic stability in liver microsomes at 60 min., Monkey” value is reported as 93%. The “Metabolic stability in liver microsomes at 60 min., Human” value in data set [2] is recorded as 99%. The “Metabolic stability in hepatocytes at 240 min., Rat” value in data set [3] is reported as 90%. Moreover, in the data set with CYP3A4, the “Potential for induction of CYP3A4, 3 μM” value is reported as <10% and the “Potential for induction of CYP3A4, 10 μM” value is given as <10%. In addition, the “Potential for induction of CYP3A4, 30 μM” value in the data set with CYP3A4 (30 μM compound) was <10%.
